One data set deals with stomachs. As to the kind of experiment: Gastric ulceration effect. It counts as in vivo. The conditions noted are these: female rats, oral, seven hours; graphically determined; maximum ulceration index is 300. The procedure: B. Gastric ulceration effect
The test was done on female rats weighing 120 to 150 g on a water diet for 24 hours at the time of the treatment divided into random groupd. The products were administered orally and seven hours later, the animals were killed and their stomachs opened along the great curvature, washed in an isotonic solution of sodium chloride and spread apart by wiping with a cotton pad soaked in the same solution. The degree of ulcerous lesions, in number and in size, was estimated on a scale from 0 to 3 by two observers unware of the treatments. The notation 1 indicated the presence of an obvious ulcer or of several punctiform ulcers.
To take in account also the percentage of rats having ulcers (degree of ulceration greater than 0.5, notation attributed to a hyperemia or to Petechiae often encountered in a control which had fasted) an ulceration index was calculated for each group according to the formula [formula]
The dose corresponding to an ulceration index of 100 or DU 100 was graphically determined (the maximum ulceration index is 300).
As to `CCC(=O)OC(CC)c1nc2c(C(F)(F)F)cccc2c(O)c1C(=O)Nc1nccs1` (stereo not shown) [Example 12, 4-hydroxy-2-[1-(1-oxopropoxy)-propyl]-N-(2-thiazolyl)-8-(trifluoromethyl)-3-quinoline carboxamide], the “DU 100 (dose corresponding to an ulceration index of 100)” value is “greater than 300 mg/kg”.

For the molecule `CCCC(=O)OC(CC)c1nc2c(C(F)(F)F)cccc2c(O)c1C(=O)Nc1nccs1` (stereo not shown) [Example 17, 1-[4-hydroxy-3-[(2-thiazolylamino)-carbonyl]-8-trifluoromethyl)-2quinolinyl]-propyl butanoate], the “DU 100 (dose corresponding to an ulceration index of 100)” value is recorded as “greater than 300 mg/kg”.

In a further data set the test system is chronic arthritis of adjuvant. As to the kind of experiment: Anti-inflammatory activity, chronic arthritis of adjuvant (preventative treatment). The conditions noted are these: Rattus norvegicus, 408 h; male rats, oral, day 0 to day before kill on day 17; dose reducing increase in volume of hind paws by 50% (table, section A); read-out: DA50 (the source's name). It counts as in vivo. The procedure: A. Anti-inflammatory activity chronic arthritis of adjuvant (preventative treatment)
(§1) The injection of adjuvant of "Freund" type into a hind paw causes in rats the rapid appearance of a primary inflammatory lesion in this paw and then after a latent period of 13 to 15 days, causes a secondary arthritis affecting in particular the other hind paw. The test was carried out on male rats aged from 42 to 50 days which received by intraplantar injection 0.1 ml of adjuvant of "Freund"type (suspension in vaseline oil of 6 mg per ml. of killed mycobacterium butyricum). The animals received the product studied orally from day 0 (day of the injection of the adjuvant) until the day before they were killed which occured on day 17. The arthritic control animals and normal control animals received only the vehicle. The assessment criteria of the activity of the substances studied were the increase in the volume of hind paws injected (primary and secondary inflammation) and not injected (secondary inflammation) in comparison with the average volume of paws corresponding to the normal controls. The DA50 was determined, that is to say, the dose which reduced the increase in volume of the hind paws of the treated animals in comparison to those of the control animals by 50% and the results are reported in the following Table.
C. Anti-inflammatory activity chronic arthritis of adjuvant (preventative treatment)
as §1, with “"Freund" type” for “"Freund"type”, “say” for “say,”, “50%.” for “50% and the results are reported in the following Table.”
Regarding `CC(O)C(O)c1nc2c(C(F)(F)F)cccc2c(O)c1C(=O)Nc1nccs1` (stereo not shown) [Example 3, 2-(1,2-dihydroxypropyl)-4-hydroxy-N-(2-thiazolyl)-8-trifluoromethyl-3-quinoline carboxamide], the ED50 came out at 3 mg/kg.

Take `CCC(=O)OC(COC)c1nc2c(C(F)(F)F)cccc2c(O)c1C(=O)Nc1nccs1` (stereo not shown) [Example 5, 2-[2-methoxy-1-(1-oxopropoxy)-ethyl]-4-hydroxy-N-(2-thiazolyl)-8-trifluoromethyl-3-quinoline carboxamide]: the ED50 is 5 mg/kg.

For `CCC(=O)OCC(OC(=O)CC)c1nc2c(C(F)(F)F)cccc2c(O)c1C(=O)Nc1nccs1` (stereo not shown) [Example 4, 2-[1,2-bis-(1-oxopropoxy)ethyl]-4-hydroxy-N-(2-thiazolyl)-8-trifluoromethyl-3-quinolinecarboxamide], the ED50 turned out to be 1 mg/kg.

For the molecule `CCC(=O)OC(CC)c1nc2c(C(F)(F)F)cccc2c(O)c1C(=O)Nc1nccs1` (stereo not shown) [Example 12, 4-hydroxy-2-[1-(1-oxopropoxy)-propyl]-N-(2-thiazolyl)-8-(trifluoromethyl)-3-quinoline carboxamide], the ED50 turned out to be 0.8 mg/kg.

`CCC(OC(=O)CN)c1nc2c(C(F)(F)F)cccc2c(O)c1C(=O)Nc1nccs1` (stereo not shown) [Example 16, 1-[4-hydroxy-3-[(2-thiazolylamino)-carbonyl]-8-(trifluoromethyl)-2quinolinyl]-propyl amino acetate dichlorohydride]: the ED50 is 1 mg/kg.

Take `O=C(Nc1nccs1)c1c(C(O)CO)nc2c(C(F)(F)F)cccc2c1O` (stereo not shown) [Example 2, 2-(1,2-dihydroxyethyl)-4-hydroxy-N-(2-thiazolyl)-8-trifluoromethyl-3-quinoline carboxamide]: the ED50 is 0.7 mg/kg.

As to `CCC(OC(=O)c1cc2ccccc2[nH]1)c1nc2c(C(F)(F)F)cccc2c(O)c1C(=O)Nc1nccs1` (stereo not shown) [Example 28, 1-[4-hydroxy-3-{[(2-aminothiazolyl)-carbonyl]-8-trifluoromethyl2-quinolinyl]-propyl]1H-indole-2-carboxylate], the ED50 is 2 mg/kg.

Regarding `COCC(O)c1nc2c(C(F)(F)F)cccc2c(O)c1C(=O)Nc1nccs1` (stereo not shown) [Example 1, 4-hydroxy-2-(1-hydroxy-2-methoxy-ethyl)-N-(2-thiazolyl)-8-(trifluoromethyl)-3-quinoline carboxamide], the ED50 came to 2 mg/kg.

For `CCCC(=O)OC(CC)c1nc2c(C(F)(F)F)cccc2c(O)c1C(=O)Nc1nccs1` (stereo not shown) [Example 17, 1-[4-hydroxy-3-[(2-thiazolylamino)-carbonyl]-8-trifluoromethyl)-2quinolinyl]-propyl butanoate], the ED50 is 1.3 mg/kg.

Staying with this data set, now noted: Rattus norvegicus, 408 h; male rats, oral, day 0 to day before kill on day 17; dose reducing increase in volume of hind paws by 50% (text, section C); read-out: DA50 (the source's name).
With `CCC(O)c1nc2c(C(F)(F)F)cccc2c(O)c1C(=O)Nc1nccs1` (single isomer, unassigned; isomer b) [Step A of Example 27 (B-isomer), 4-hydroxy-2-(1-hydroxypropyl)-N-(2-thiazolyl)-8-trifluoromethyl-3-quinoline carboxamide isomer B], the ED50 was determined as 0.5 mg/kg.

Still in this data set, the particulars now being: male rats, oral, day 0 to day before kill on day 17; dose reducing increase in volume of hind paws by 50% (table, section A); 24480 min.
On to `CCCc1ncc(C(=O)OC(CC)c2nc3c(C(F)(F)F)cccc3c(O)c2C(=O)Nc2nccs2)s1` (stereo not shown) [Example 29], for which the DA50 is 2 mg/kg.

These data come from patent publication US4988708A, “Analgesic and anti-inflammatory 4-OH quinoline carboxylic acid derivatives” (Roussel Uclaf, priority 1984, dated 1991).
